Results as given in US20260374766A1, “METHODS FOR TREATING CANCER” (Antares Therapeutics, Inc., priority 2022, published 2026).

Experiments:
[1] = molecular target: T1, p53 Y220C mutant protein (amino acid residues 94-293) (Homo sapiens, UniProt P04637, Y220C); assay: Surface Plasmon Resonance (SPR) assay, Kd_kinetic; type: binding; settings: SPR, kinetic KD, p53 Y220C; read-out: SPR P53 Y220C KD kinetic
T1 construct: p53 Y220C mutant protein (amino acid residues 94-293)
Method in brief: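 Surface plasmon resonance is run at 16 or 20 °C in 50 mM Tris pH 7.5 containing 100 mM NaCl, 1 mM DTT, 0.01% Brij35, 0.05% Tween-20 and 1% DMSO. Association and dissociation data are fitted to a 1:1 model.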

[2] = molecular target: T1, p53 Y220C mutant protein (amino acid residues 94-293); assay: Thermal Shift Assay (TSA), dTM; type: binding; settings: thermal shift; for ΔTm at 100 µM: 100 uM compound, read-out: TSA P53 Y220C dTM (100 uM); for ΔTm at 10 µM: 10 uM compound, read-out: TSA P53 Y220C dTM (10 uM)
Method in brief: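 Sypro Orange melt (30→50 °C, 0.03 °C/s) with TM taken from a Boltzmann two-state fit. Protein (residues 94-293) at 5 μM was pre-incubated 3 h at 20 °C with compound at 10 μM or 100 μM in pH 7.4 HEPES/NaCl buffer containing 0.01% Pluronic F-127 and 1% DMSO.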

p53 Y220C = p53 Y220C (Homo sapiens, UniProt P04637, Y220C); assay: Luciferase Reporter Assay (Luc), p53 response element, NClH1299 cells with inducible p53 Y220C; type: cell-based; settings: luciferase reporter, NClH1299 inducible p53 Y220C, 6 hour; for Emax: 10 uM tool compound as positive control; for AC50: read-out: Luc P53 Y220C AC50
Method in brief: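 Cells were seeded at 5,000 per well and induced with 0.5 ug/mL doxycycline for 24 hours, then exposed to compound for 6 hours. One-Glo reagent was added, plates shaken 5 minutes at room temperature, and luminescence read immediately.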

NUGC3 p53 Y220C = assay: Cell Proliferation Assay (CellTiter-Glo, CTG), NUGC3 p53 Y220C; type: cell-based; settings: Homo sapiens, NUGC-3, 120 h, CellTiter-Glo, NUGC3 p53 Y220C, 5 days
Method in brief: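 Tet-One inducible p53 Y220C or R273H constructs were stably introduced into NCI-H1299 by lentiviral transduction; NUGC3 was used as is. Cells (250-500 per well) were exposed to compound for 5 days, then CellTiter-Glo was added for 10 min at room temperature and IC50 was calculated from luminescence.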

H1299 p53 Y220C = assay: Cell Proliferation Assay (CellTiter-Glo, CTG), H1299 p53 Y220C (NClH1299-inducible p53 Y220C); type: cell-based; settings: Homo sapiens, NCI-H1299, 120 h, CellTiter-Glo, H1299 p53 Y220C, 5 days
Method in brief: (§1)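 Cells seeded at 250-500 per well and exposed to compound for 5 days. Viability read by CellTiter-Glo luminescence after 10 min at room temperature; IC50 calculated. H1299 lines carry Tet-One inducible p53 mutant constructs introduced by lentiviral transduction.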

H1299 p53 R273H = assay: Cell Proliferation Assay (CellTiter-Glo, CTG), H1299 p53 R273H (NClH1299-inducible p53 R273H); type: cell-based; settings: Homo sapiens, NCI-H1299, 120 h, CellTiter-Glo, H1299 p53 R273H, 5 days
Method in brief: as §1

Structure (SMILES)	Kd [1] [nM]	ΔTm at 100 µM [2] [°C]	Emax (p53 Y220C) [%]	AC50 (p53 Y220C) [nM]	IC50 (H1299 p53 Y220C) [nM]	IC50 (H1299 p53 R273H) [µM]	ΔTm at 10 µM [2] [°C]	IC50 (NUGC3 p53 Y220C) [nM]
CCNC(=O)c1ccc(NCC#Cc2nc3c(N[C@@H]4CCN(C)C[C@@H]4F)cccn3c2SC(F)(F)F)c(OC)c1 [Example 85, N-ethyl-4-{[3-(8-{[(3S,4R)-3-fluoro-1-methylpiperidin-4-yl]amino}-3-[(trifluoromethyl)sulfanyl]imidazo[1,2-a]pyridin-2-yl)prop-2-yn-1-yl]amino}-3-methoxybenzamide]	< 10	≥ 10	80 to 90	< 750	< 750	5 to 8	–	< 750
COc1cc(C(=O)NC2CC2)ccc1NCC#Cc1nc2c(N[C@@H]3CCN(C)C[C@@H]3F)cccn2c1SC(F)(F)F [Example 86, N-cyclopropyl-4-{[3-(8-{[(3S,4R)-3-fluoro-1-methylpiperidin-4-yl]amino}-3-[(trifluoromethyl)sulfanyl]imidazo[1,2-a]pyridin-2-yl)prop-2-yn-1-yl]amino}-3-methoxybenzamide]	< 10	≥ 10	80 to 90	< 750	< 750	5 to 8	–	< 750
COc1cc(C(=O)N2CCC2)ccc1NCC#Cc1nc2c(N[C@@H]3CCN(C)C[C@@H]3F)cccn2c1SC(F)(F)F [Example 87, (3S,4R)—N-[2-(3-{[4-(azetidine-1-carbonyl)-2-methoxyphenyl]amino}prop-1-yn-1-yl)-3-[(trifluoromethyl)sulfanyl]imidazo[1,2-a]pyridin-8-yl]-3-fluoro-1-methylpiperidin-4-amine]	< 10	≥ 10	80 to 90	< 750	< 750	8 to 10	–	< 750
COc1cc(C(=O)NC(C)C)ccc1NCC#Cc1nc2c(N[C@@H]3CCN(C)C[C@@H]3F)cccn2c1SC(F)(F)F [Example 89, 4-{[3-(8-{[(3S,4R)-3-fluoro-1-methylpiperidin-4-yl]amino}-3-[(trifluoromethyl)sulfanyl]imidazo[1,2-a]pyridin-2-yl)prop-2-yn-1-yl]amino}-N-isopropyl-3-methoxybenzamide]	< 10	≥ 10	80 to 90	< 750	< 750	8 to 10	–	< 750
CNC(=O)c1ccc(NCC#Cc2nc3c(N[C@@H]4CCN(C)C[C@@H]4F)cccn3c2CC(F)(F)F)c(OC)n1 [Example 92, 5-{[3-(8-{[(3S,4R)-3-fluoro-1-methylpiperidin-4-yl]amino}-3-(2,2,2-trifluoroethyl)imidazo[1,2-a]pyridin-2-yl)prop-2-yn-1-yl]amino}-6-methoxy-N-methylpyridine-2-carboxamide]	< 10	5 to 10	80 to 90	< 750	< 750	5 to 8	–	< 750
CNC(=O)c1ccc(NCC#Cc2nc3c(N[C@@H]4CCN(C)C[C@@H]4F)cccn3c2SC(F)(F)F)c(OC)n1 [Example 93, 5-{[3-(8-{[(3S,4R)-3-fluoro-1-methylpiperidin-4-yl]amino}-3-[(trifluoromethyl)sulfanyl]imidazo[1,2-a]pyridin-2-yl)prop-2-yn-1-yl]amino}-6-methoxy-N-methylpyridine-2-carboxamide]	< 10	≥ 10	> 90	< 750	< 750	5 to 8	–	< 750

Further lines, with some results ahead:

Kd [1] [nM]	ΔTm at 100 µM [2] [°C]	Emax (p53 Y220C) [%]	AC50 (p53 Y220C) [nM]	IC50 (H1299 p53 Y220C) [nM]	IC50 (H1299 p53 R273H) [µM]	ΔTm at 10 µM [2] [°C]	Structure (SMILES)	IC50 (NUGC3 p53 Y220C) [nM]
< 10	≥ 10	80 to 90	< 750	< 750	≥ 10	–	COc1cc(S(=O)(=O)C(C)C)ccc1NCC#Cc1nc2c(N[C@@H]3CCN(C)C[C@@H]3F)cccn2c1SC(F)(F)F [Example 78, (3S,4R)-3-fluoro-N-[2-(3-{[2-methoxy-4-(propane-2-sulfonyl)phenyl]amino}prop-1-yn-1-yl)-3-[(trifluoromethyl)sulfanyl]imidazo[1,2-a]pyridin-8-yl]-1-methylpiperidin-4-amine]	< 750
< 10	≥ 10	80 to 90	< 750	< 750	8 to 10	–	CCS(=O)(=O)c1ccc(NCC#Cc2nc3c(N[C@@H]4CCN(C)C[C@@H]4F)cccn3c2SC(F)(F)F)c(OC)c1 [Example 79, (3S,4R)—N-[2-(3-{[4-(ethanesulfonyl)-2-methoxyphenyl]amino}prop-1-yn-1-yl)-3-[(trifluoromethyl)sulfanyl]imidazo [1,2-a]pyridin-8-yl]-3-fluoro-1-methylpiperidin-4-amine]	< 750
< 10	≥ 10	80 to 90	< 750	< 750	5 to 8	–	CCS(=O)(=O)c1ccc(NCC#Cc2nc3c(N[C@@H]4CCNC[C@@H]4F)cccn3c2SC(F)(F)F)c(OC)c1 [Example 80, (3S,4R)—N-[2-(3-{[4-(ethanesulfonyl)-2-methoxyphenyl]amino}prop-1-yn-1-yl)-3-[(trifluoromethyl)sulfanyl]imidazo[1,2-a]pyridin-8-yl]-3-fluoropiperidin-4-amine]	< 750
< 10	≥ 10	80 to 90	< 750	< 750	5 to 8	–	COc1cc(S(=O)(=O)C2CC2)ccc1NCC#Cc1nc2c(N[C@@H]3CCN(C)C[C@@H]3F)cccn2c1SC(F)(F)F [Example 81, (3S,4R)—N-[2-(3-{[4-(cyclopropanesulfonyl)-2-methoxyphenyl]amino}prop-1-yn-1-yl)-3-[(trifluoromethyl)sulfanyl]imidazo[1,2-a]pyridin-8-yl]-3-fluoro-1-methylpiperidin-4-amine]	< 750
< 10	≥ 10	80 to 90	< 750	< 750	8 to 10	–	COc1cc(S(C)(=O)=O)ccc1NCC#Cc1nc2c(N[C@@H]3CCN(C)C[C@@H]3F)cccn2c1SC(F)(F)F [Example 82, (3S,4R)-3-fluoro-N-(2-{3-[(4-methanesulfonyl-2-methoxyphenyl)amino]prop-1-yn-1-yl}-3-[(trifluoromethyl)sulfanyl]imidazo[1,2-a]pyridin-8-yl)-1-methylpiperidin-4-amine]	< 750
< 10	≥ 10	70 to 80	< 750	< 750	5 to 8	≥ 10	COc1cc(S(C)(=O)=O)ccc1NCC#Cc1nc2c(N[C@@H]3CCNC[C@@H]3F)cccn2c1SC(F)(F)F [Example 83]	< 750
< 10	≥ 10	80 to 90	1500 to 3000	1500 to 3000	≥ 10	5 to 10	COc1ccc(S(C)(=O)=O)cc1NCC#Cc1nc2c(N[C@@H]3CCN(C)C[C@@H]3F)cccn2c1SC(F)(F)F [Example 84, (3S,4R)-3-fluoro-N-(2-{3-[(5-methanesulfonyl-2-methoxyphenyl)amino]prop-1-yn-1-yl}-3-[(trifluoromethyl)sulfanyl]imidazo[1,2-a]pyridin-8-yl)-1-methylpiperidin-4-amine]	1500 to 3000
< 10	≥ 10	80 to 90	< 750	< 750	8 to 10	≥ 10	COc1cc(C(=O)N(C)C)ccc1NCC#Cc1nc2c(N[C@@H]3CCN(C)C[C@@H]3F)cccn2c1SC(F)(F)F [Example 88, 4-{[3-(8-{[(3S,4R)-3-fluoro-1-methylpiperidin-4-yl]amino}-3-[(trifluoromethyl)sulfanyl]imidazo[1,2-a]pyridin-2-yl)prop-2-yn-1-yl]amino}-3-methoxy-N, N-dimethylbenzamide]	< 750
